The target of the experiment is T1, human D3 dopamine receptor (Homo sapiens, UniProt P35462).
T1 construct: expressed in transfected cells; host or cells: HEK-293 EBNA cells, transient transfection; membrane preparation
T1 sequence (P35462 whole entry): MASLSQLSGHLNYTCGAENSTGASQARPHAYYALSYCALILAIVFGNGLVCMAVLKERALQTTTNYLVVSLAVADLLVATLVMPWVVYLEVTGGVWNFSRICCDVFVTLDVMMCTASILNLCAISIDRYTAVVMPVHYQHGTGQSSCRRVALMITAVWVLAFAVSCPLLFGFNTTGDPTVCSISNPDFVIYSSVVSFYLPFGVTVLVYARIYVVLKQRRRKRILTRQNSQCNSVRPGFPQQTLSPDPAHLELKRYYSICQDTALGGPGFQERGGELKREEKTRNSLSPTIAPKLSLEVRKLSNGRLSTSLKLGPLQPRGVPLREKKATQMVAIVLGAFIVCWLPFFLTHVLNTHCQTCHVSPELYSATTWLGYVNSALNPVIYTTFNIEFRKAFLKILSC
In words: radioligand binding ([3H]-spiperone) to cloned human D3 receptors expressed in HEK-293 EBNA cells. Particulars: [3H]-spiperone approx. 0.5 nM, HEK-293 EBNA membranes, 1 h at RT; Ki by Cheng-Prusoff. How it is done:
The cells were harvested 48 h post-transfection, washed three times with cold PBS and stored at −80° C. prior to use. The pellet was suspended in cold 50 mM Tris-HCl buffer containing 10 mM EDTA (pH 7.4) and homogenized with a Polytron (Kinematica AG, Basel, Switzerland) for 20-30 sec at 12.000 rpm. After centrifugation at 48.000×g for 30 min at 4° C., the pellet was resuspended in cold 10 mM Tris-HCl buffer containing 0.1 mM EDTA (pH 7.4), homogenized, and centrifuged as above. This pellet was further resuspended in a smaller volume of ice cold 10 mM Tris-HCl buffer containing 0.1 mM EDTA (pH 7.4) and homogenized with a Polytron for 20-30 sec at 12.000 rpm. The protein content of this homogenate was determined with the Bio-Rad (Bradford) Protein Assay (Biorad Laboratories GmbH, München, Germany) according to the instructions of the manufacturer using gamma globulin as the standard. This homogenate was stored at −80° C. in aliquots and thawed immediately prior to use.
Aliquots of membrane preparations were thawed at RT, resuspended in assay buffer (50 mM Tris-HCl, 120 mM NaCl, 5 mM MgCl2, 1 mM EDTA, 5 mM KCl, 1.5 mM CaCl2, pH=7.4), homogenized with a Polytron for 20-30 sec at 12.000 rpm and adjusted to a final concentration of approximately 7.5 μg protein/well.
The binding affinity (Ki) of the compounds was determined using radioligand binding. Membranes were incubated in a total volume of 200 μl with a fixed concentration of radioligand (final concentration approximately 0.5 nM [^3H]-spiperone) and ten concentrations of test compound in ranging between 10 μM-0.1 nM for 1 h at RT. […] The nonspecific binding was determined with equally composed reaction mixtures in the presence of 10 μM unlabelled spiperone. Per well 45 μl of Microscint 40 (Perkin Elmer, Schwerzenbach, Switzerland) was added, plates for sealed, shaken for 20 min and counted for 3 min on a Topcount Microplate Scintillation Counter (Canberra Packard SA, Zürich, Switzerland) with quenching correction.
The CPM value for each duplicate of a concentration of competing compound was averaged (y1), then the % specific binding was calculated according to the equation (((y1−non-specific)/(total binding−non-specific))×100). Graphs were plotted with the % specific binding using XLfit, a curve fitting program that iteratively plots the data using Levenburg Marquardt algorithm. The single site competition analysis equation used was y=A+((B−A)/(1+((x/C)^D))), where y is the % specific binding, A is the minimum y, B is the maximum y, C is the IC50, x is the log10 of the concentration of the competing compound and D is the slope of the curve (the Hill Coefficient). […] The affinity constant (Ki) was calculated using the Cheng-Prusoff equation Ki=(IC50/1+([L]/Kd), where [L] is the concentration of radioligand and Kd is the dissociation constant of the radioligand at the receptor as determined by the saturation isotherm.
Usually Ki stands for a dissociation constant, usually derived from enzyme kinetics or from competition with a known ligand. As to `O=C(CC1CC1)N[C@H]1CC[C@H](CCN2CCN(c3noc4ccncc34)CC2)CC1` [Example 4, 2-Cyclopropyl-N-{trans-4-[2-(4-isoxazolo[4,5-c]pyridin-3-yl-piperazin-1-yl)-ethyl]-cyclohexyl}-acetamide], the Ki is 15.4 nM.

With `O=C(N[C@H]1CC[C@H](CCN2CCN(c3noc4ccncc34)CC2)CC1)c1ccc(F)nc1` [Example 7, 6-Fluoro-N-{trans-4-[2-(4-isoxazolo[4,5-c]pyridin-3-yl-piperazin-1-yl)-ethyl]-cyclohexyl}-nicotinamide], the Ki amounted to 63 nM.

Turning to `COCCC(=O)N[C@H]1CC[C@H](CCN2CCN(c3noc4ccncc34)CC2)CC1` [Example 2, N-{trans-4-[2-(4-Isoxazolo[4,5-c]pyridin-3-yl-piperazin-1-yl)-ethyl]-cyclohexyl}-3-methoxy-propionamide], the inhibitory constant (Ki) is 24.3 nM.

For the compound `O=C(CF)N[C@H]1CC[C@H](CCN2CCN(c3noc4ccncc34)CC2)CC1` [Example 5, 2-Fluoro-N-{trans-4-[2-(4-isoxazolo[4,5-c]pyridin-3-yl-piperazin-1-yl)-ethyl]-cyclohexyl}-acetamide], the Ki worked out at 43 nM.

`CCC(=O)N[C@H]1CC[C@H](CCN2CCN(c3noc4ccncc34)CC2)CC1` [Example 3, N-{trans-4-[2-(4-Isoxazolo[4,5-c]pyridin-3-yl-piperazin-1-yl)-ethyl]-cyclohexyl}-propionamide]: the Ki turned out to be 12.4 nM.

With `O=C(N[C@H]1CC[C@H](CCN2CCN(c3noc4ccncc34)CC2)CC1)c1ccc(F)cc1` [Example 6, 4-Fluoro-N-{trans-4-[2-(4-isoxazolo[4,5-c]pyridin-3-yl-piperazin-1-yl)-ethyl]-cyclohexyl}-benzamide], the Ki stood at 97 nM.

As to `CC(=O)N[C@H]1CC[C@H](CCN2CCN(c3noc4ccncc34)CC2)CC1` [Example 1, N-{trans-4-[2-(4-Isoxazolo[4,5-c]pyridin-3-yl-piperazin-1-yl)-ethyl]-cyclohexyl}-acetamide], the Ki worked out at 40.4 nM.
